# Measured values: the NIST ThermoML archive (doi:10.1021/je060217u)
# ± gives the expanded uncertainty stated by the source.
# What was measured:
# [1] = 298.15 K; 101 kPa; Liquid
# [2] = xn = mol fraction of the nth substance listed; conditions: 298.15 K, 101 kPa, Liquid
smiles,measurement,setting,value
CCCCO [butan-1-ol],mass density,[1],806.04 ± 0.56 kg/m3
CCCO [propan-1-ol] + COC(=O)OC,mass density,[2]; x1 = 1,799.75 ± 0.57 kg/m3
CCCO [propan-1-ol],mass density,[1],799.75 ± 0.57 kg/m3
COC(=O)OC [dimethyl carbonate] + CCCCO,mass density,[2]; x2 = 0,1063.19 ± 0.31 kg/m3
same,mass density,[2]; x2 = 0.0502,1047.97 ± 0.28 kg/m3
same,mass density,[2]; x2 = 0.0999,1033.24 ± 0.26 kg/m3
same,mass density,[2]; x2 = 0.1499,1018.51 ± 0.23 kg/m3
same,mass density,[2]; x2 = 0.2003,1004.53 ± 0.21 kg/m3
same,mass density,[2]; x2 = 0.2501,990.53 ± 0.22 kg/m3
same,mass density,[2]; x2 = 0.2998,976.9 ± 0.25 kg/m3
same,mass density,[2]; x2 = 0.3499,963.39 ± 0.27 kg/m3
same,mass density,[2]; x2 = 0.4,950.13 ± 0.3 kg/m3
same,mass density,[2]; x2 = 0.4501,937.02 ± 0.33 kg/m3
same,mass density,[2]; x2 = 0.5,924.2 ± 0.35 kg/m3
same,mass density,[2]; x2 = 0.55,911.58 ± 0.37 kg/m3
same,mass density,[2]; x2 = 0.6,899.07 ± 0.39 kg/m3
same,mass density,[2]; x2 = 0.65,886.83 ± 0.41 kg/m3
same,mass density,[2]; x2 = 0.7,874.68 ± 0.43 kg/m3
same,mass density,[2]; x2 = 0.7499,862.98 ± 0.45 kg/m3
same,mass density,[2]; x2 = 0.7999,851.07 ± 0.47 kg/m3
same,mass density,[2]; x2 = 0.85,839.53 ± 0.49 kg/m3
same,mass density,[2]; x2 = 0.8999,828.11 ± 0.52 kg/m3
same,mass density,[2]; x2 = 0.9499,817 ± 0.54 kg/m3
CCCCO [butan-1-ol] + COC(=O)OC,mass density,[2]; x1 = 1,806.04 ± 0.56 kg/m3
COC(=O)OC [dimethyl carbonate] + CCO,mass density,[2]; x2 = 0,1063.19 ± 0.31 kg/m3
same,mass density,[2]; x2 = 0.0501,1052.75 ± 0.29 kg/m3
same,mass density,[2]; x2 = 0.1,1042.29 ± 0.27 kg/m3
same,mass density,[2]; x2 = 0.1501,1031.54 ± 0.25 kg/m3
same,mass density,[2]; x2 = 0.1998,1020.64 ± 0.24 kg/m3
same,mass density,[2]; x2 = 0.2498,1009.34 ± 0.22 kg/m3
same,mass density,[2]; x2 = 0.2998,997.73 ± 0.21 kg/m3
same,mass density,[2]; x2 = 0.3501,985.68 ± 0.24 kg/m3
same,mass density,[2]; x2 = 0.4002,973.28 ± 0.26 kg/m3
same,mass density,[2]; x2 = 0.4499,960.59 ± 0.29 kg/m3
same,mass density,[2]; x2 = 0.5,947.4 ± 0.32 kg/m3
same,mass density,[2]; x2 = 0.55,933.74 ± 0.34 kg/m3
same,mass density,[2]; x2 = 0.6001,919.57 ± 0.36 kg/m3
same,mass density,[2]; x2 = 0.65,905 ± 0.38 kg/m3
same,mass density,[2]; x2 = 0.6999,889.89 ± 0.41 kg/m3
same,mass density,[2]; x2 = 0.7499,874.1 ± 0.43 kg/m3
same,mass density,[2]; x2 = 0.8001,857.71 ± 0.46 kg/m3
same,mass density,[2]; x2 = 0.8498,840.7 ± 0.49 kg/m3
same,mass density,[2]; x2 = 0.8998,822.98 ± 0.53 kg/m3
same,mass density,[2]; x2 = 0.95,804.45 ± 0.56 kg/m3
CCO [ethanol],mass density,[1],785.2 ± 0.6 kg/m3
CCO [ethanol] + COC(=O)OC,mass density,[2]; x1 = 1,785.2 ± 0.6 kg/m3
COC(=O)OC [dimethyl carbonate] + CCCO,mass density,[2]; x2 = 0,1063.19 ± 0.31 kg/m3
same,mass density,[2]; x2 = 0.0501,1050.5 ± 0.29 kg/m3
same,mass density,[2]; x2 = 0.1002,1037.73 ± 0.27 kg/m3
same,mass density,[2]; x2 = 0.1498,1025.44 ± 0.24 kg/m3
same,mass density,[2]; x2 = 0.1999,1012.47 ± 0.22 kg/m3
same,mass density,[2]; x2 = 0.2502,999.85 ± 0.21 kg/m3
same,mass density,[2]; x2 = 0.2999,987.13 ± 0.23 kg/m3
same,mass density,[2]; x2 = 0.3498,974.39 ± 0.26 kg/m3
same,mass density,[2]; x2 = 0.3998,961.45 ± 0.28 kg/m3
same,mass density,[2]; x2 = 0.4499,948.47 ± 0.31 kg/m3
same,mass density,[2]; x2 = 0.5001,935.29 ± 0.34 kg/m3
same,mass density,[2]; x2 = 0.55,922.19 ± 0.35 kg/m3
same,mass density,[2]; x2 = 0.6,908.92 ± 0.37 kg/m3
same,mass density,[2]; x2 = 0.6501,895.57 ± 0.4 kg/m3
same,mass density,[2]; x2 = 0.7001,882.18 ± 0.42 kg/m3
same,mass density,[2]; x2 = 0.75,868.68 ± 0.44 kg/m3
same,mass density,[2]; x2 = 0.8002,855.15 ± 0.47 kg/m3
same,mass density,[2]; x2 = 0.8501,841.36 ± 0.49 kg/m3
same,mass density,[2]; x2 = 0.9002,827.59 ± 0.52 kg/m3
same,mass density,[2]; x2 = 0.9502,813.83 ± 0.54 kg/m3
COC(=O)OC [dimethyl carbonate],mass density,[1],1063.19 ± 0.31 kg/m3
